SMILES	melting point [°C]
CS(=O)(=O)c1ccc(-n2cc(CSc3ccccc3Cl)nc2-c2ccc(Cl)cc2)cc1 [Example 170, 2-(4-Chlorophenyl)-4-[[(2-chlorophenyl)thio)methyl]-1-[4-(methylsulfonyl)phenyl]-1H-imidazole]	153
Cc1ccccc1SCc1cn(-c2ccc(S(C)(=O)=O)cc2)c(-c2ccc(Cl)cc2)n1 [Example 171, 2-(4-Chlorophenyl)-4-[[(2-methylphenyl)thio]methyl]-1-[4-(methylsulfonyl)phenyl]-1H-imidazole]	51
CC(C)c1ccccc1SCc1cn(-c2ccc(S(C)(=O)=O)cc2)c(-c2ccc(Cl)cc2)n1 [Example 173]	68 to 73
CS(=O)(=O)c1ccc(-n2cc(C#N)nc2-c2ccc(Cl)cc2)cc1 [Example 174, 2-(4-Chlorophenyl)-1-[4-(methylsulfonyl)phenyl]-1H-imidazole-4-carbonitrile]	205

Other lines, results leading:

melting point [°C]	SMILES
197	CS(=O)(=O)c1ccc(-n2cc(CC#N)nc2-c2ccc(Cl)cc2)cc1 [Example 175, 2-(4-Chlorophenyl)-1-[4-(methylsulfonyl)phenyl]-1H-imidazole-4-acetanitrile]
263 to 264	CS(=O)(=O)c1ccc(-n2cc(CC(=O)O)nc2-c2ccc(Cl)cc2)cc1 [Example 176, 2-(4-Chlorophenyl)-1-[4-(methylsulfonyl)phenyl]-1H-imidazole-4-acetic acid]
64 to 65	CS(=O)(=O)c1ccc(-n2cc(COCc3ccccc3)nc2-c2ccc(Cl)cc2)cc1 [Example 178, 2-(4-Chlorophenyl)-1-[4-(methyloulfonyl)phenyl]-4-(phenylmethoxymethyl)-1H-imidazole]
